Test results from patent US9458102B2 (priority 2011, dated 2016).

Assays:
[1] = biological target: T1, Butyrylcholinesterase purified from human blood serum (Homo sapiens, UniProt P06276); assay: In vitro hydrolysis by serum cholinesterase (butyrylcholinesterase); format: in vitro ADME; conditions: for hydrolysis product after incubation with butyrylcholinesterase: 24-hour incubation
T1 construct: Butyrylcholinesterase purified from human blood serum; purchased Sigma; host or cells: purified from human blood serum
T1 sequence (P06276 29-602): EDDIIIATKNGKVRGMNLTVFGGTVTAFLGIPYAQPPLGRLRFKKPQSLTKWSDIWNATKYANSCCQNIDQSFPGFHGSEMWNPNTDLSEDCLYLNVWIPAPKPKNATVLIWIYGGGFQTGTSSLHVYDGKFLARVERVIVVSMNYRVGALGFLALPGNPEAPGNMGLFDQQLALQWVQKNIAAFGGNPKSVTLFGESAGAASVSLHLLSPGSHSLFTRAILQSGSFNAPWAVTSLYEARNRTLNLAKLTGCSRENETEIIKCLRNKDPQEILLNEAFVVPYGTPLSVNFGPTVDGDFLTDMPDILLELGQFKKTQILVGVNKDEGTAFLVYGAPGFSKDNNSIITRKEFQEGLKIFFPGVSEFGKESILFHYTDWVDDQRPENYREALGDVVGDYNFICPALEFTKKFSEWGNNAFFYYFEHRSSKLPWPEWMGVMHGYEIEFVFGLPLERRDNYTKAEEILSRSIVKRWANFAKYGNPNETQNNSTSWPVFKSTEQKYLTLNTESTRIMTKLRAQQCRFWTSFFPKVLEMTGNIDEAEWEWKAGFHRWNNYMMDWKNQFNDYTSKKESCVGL
Protocol: Compound 1 is rapidly hydrolyzed by butyrylcholinesterase in the bloodstream. Butyrylcholinesterase purified from human blood serum was used to test the resistance of the disclosed compounds to hydrolysis.
(§1) All enzymatic assays were performed with 50 μM compound in 0.1M phosphate buffer, pH 7.4, at 37° C. with stirring, unless otherwise noted. Butyrylcholinesterase stock solutions from human serum (Sigma, St. Louis, Mo.) were prepared at 100 U/mL in 0.1 M phosphate buffer, pH 7.4, and stored at −20° C. until use. Hydrolysis was monitored on an 8452A diode array spectrophotometer (Hewlett-Packard). Product peak wavelength absorption was immediately monitored upon addition of compound. Absorbances for complete hydrolysis were determined when there were no further detectable changes. […] All hydrolysis assays were performed in triplicate, and final rate constants are expressed as the mean±SD of the three individually determined rate constants. In some experiments with compound 1, samples were taken at the beginning and end of the assay to verify the hydrolysis product and the completion of the reaction by HPLC. These samples were compared to compounds 1 and 3 on a C18 column eluted with 0.1% TFA in water/acetonitrile. Activity of chymotrypsin (bovine, Worthington Biochemical Co., 190 μg/mL) was verified with 90 μM 4-nitrophenyl acetate in 0.1 M HEPES solution, pH 6.5, at 37° C. with stirring. Hydrolysis product was monitored at 404 nm for 10 min. Activity of proteinase K (from Engyodontium album, Sigma, 165 μg/mL) was verified with 16.5 mg/mL bovine serum albumin in 0.1 M phosphate buffer, pH 7.4, at 37° C. Samples were taken at time point increments up to 2 hours when the reaction reached completion. Samples were analyzed with 12% SDS-PAGE, stained with 0.1% Coomassie Blue.

rd1 mouse = rd1 mouse model of retinal degeneration, subretinal injection; format: in vivo; conditions: subretinal injection at P12, estimated final concentration 5 μM, harvested at P17
Protocol: FIG. 9 is a set of four images of retinal sections from an untreated rd1 mouse euthanized at P17 (upper panels) and an rd1 mouse receiving a subretinal injection of 30 μM compound 8 (final concentration ^˜5 μM) at P12 and euthanized at P17 (lower panels). The photographs show standard histological analysis of retinal sections stained with cresol purple. The right panels are expansions of similar regions in each retina near the optic nerve. The white brackets mark the outer nuclear layer containing photoreceptor nuclei.
(§2) The rd1 mouse is a newer designation for the classic rd mouse, which harbors a nonsense mutation in the PDE6B gene. […] The rd phenotype has been studied for many years, and allows for more rapid assessment of protection strategies. However, the onset of rod photoreceptor death overlaps with the later stages of development and synaptogenesis, making it difficult to distinguish between the primary effects of rod degeneration and the consequences of abnormal neural development. The rd10 phenotype is more reminiscent of typical human RP.
FIG. 9 is a comparison of two rd1 eyes, one untreated (upper panel) and one receiving a subretinal injection of compound 8 to an estimated final concentration of 5 μM at P12. […] Indeed, the entire retina was healthier in appearance in the treated eye.

proteinase K = biological target: T2, proteinase K (Parengyodontium album, UniProt P06873); assay: In vitro hydrolysis by proteinase K; format: in vitro ADME, Engyodontium album
T2 construct: purchased Sigma
T2 sequence (P06873 106-384): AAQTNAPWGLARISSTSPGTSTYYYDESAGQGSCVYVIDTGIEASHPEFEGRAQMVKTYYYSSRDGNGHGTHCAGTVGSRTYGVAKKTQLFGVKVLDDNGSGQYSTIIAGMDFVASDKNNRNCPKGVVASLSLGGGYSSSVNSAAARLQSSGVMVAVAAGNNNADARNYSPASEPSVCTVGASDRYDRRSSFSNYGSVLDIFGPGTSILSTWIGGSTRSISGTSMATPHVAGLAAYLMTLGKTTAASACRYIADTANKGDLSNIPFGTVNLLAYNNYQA
Protocol: Hydrolysis products of 4-nitrophenyl acetate and BSA were detected as positive controls.
as §1

chymotrypsin = biological target: T3, chymotrypsin (Bos taurus, UniProt P00766); assay: In vitro hydrolysis by chymotrypsin; format: in vitro ADME
T3 construct: purchased Worthington Biochemical Co
Protocol: as §1, with “In some experiments with compound 1, samples were taken at the beginning and end of the assay to verify the hydrolysis product and the completion of the reaction by HPLC. These samples were compared to compounds 1 and 3 on a C18 column eluted with 0.1% TFA in water/acetonitrile.” left out

rd10 mouse = rd10 mouse model of retinal degeneration, intravitreal injection; format: in vivo; conditions: intravitreal injection at P15, final concentration ~0.5 mM, euthanized at P25; PBS in the other eye
Protocol: FIG. 8 is a set of two images of retinal sections from the left eye (left panel) and right eye (right panel) of an rd10 mouse, intravitreally injected with PBS and 5 mM compound 9 (final concentration ^˜0.5 mM), respectively, at P15 and euthanized at P25. Retinas were sectioned at 20 microns, and stained with DAPI. Images are confocal stacks taken very close to the optic nerve. The outer nuclear layers corresponding to photoreceptor cells are shown with white brackets.
as §2
(§3) In separate experiments on adult wild-type mice, the ERG a and b waves were blocked during a similar 10-day treatment, as expected for a concentration in excess of that required to completely block CNG channels. In the rd10 mouse some degeneration was probably underway before the treatment began.

adult wild-type mice = assay: ERG in adult wild-type mice during 10-day treatment; format: in vivo, mouse; conditions: similar 10-day treatment
From the text: as §3

| SMILES | Hydrolysis rate ([1]; 50 μM compound, 0.1M phosphate buffer pH 7.4, 37° C., mean±SD of triplicate) [nmol/min/mg] | hydrolysis product after incubation with butyrylcholinesterase [1] | rescuing effect on retina (rd1 mouse) | outer nuclear layer thickness (rd1 mouse; untreated eye one cell thick) | hydrolysis products with proteinase K (proteinase K) | hydrolysis products with chymotrypsin (chymotrypsin) | neuroprotection of the photoreceptor layer (rd10 mouse) | ERG a and b waves (adult wild-type mice) |
| --- | --- | --- | --- | --- | --- | --- | --- | --- |
| CCCCCCCCNc1ccc(C(=O)OCCN(C)C)cc1 [Compound 5, 2-(Dimethylamino)ethyl 4-(Octylamino)benzoate, reference compound] | 213 ± 31 |  |  |  |  |  |  |  |
| CCCCNc1ccc(C(=S)NCCN(C)C)cc1 [Compound 8, 4-(Butylamino)-N-(2-(dimethylamino)ethyl)benzothioamide] |  | no hydrolysis product was detected | very noticeable rescuing effect | about three cells thick | not able to generate any detectable hydrolysis products | not able to generate any detectable hydrolysis products |  |  |
| CCCCCCCCNc1ccc(C(=S)NCCN(C)C)cc1 [Compound 9, 4-(Octylamino)-N-(2-(dimethylamino)ethyl)benzothioamide] |  | no hydrolysis product was detected |  |  | not able to generate any detectable hydrolysis products | not able to generate any detectable hydrolysis products | striking neuroprotection of the photoreceptor layer | blocked |
